Measured values taken from PubChem BioAssay (NCI).
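A five-concentration, 48-hour dose response in 96-well plates underlies each endpoint, interpolated linearly between surrounding concentrations. GI50 = concentration required for 50% inhibition of growth. TGI: concentration producing complete growth inhibition.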

Tests used:
Assay in all cases: growth of human tumour cells (NCI), 48 h
MDA-MB-231 breast = tested on: MDA-MB-231 breast
NCI-H522 lung = tested on: NCI-H522 lung
NCI/ADR-RES ovarian = tested on: NCI/ADR-RES ovarian
SK-OV-3 ovarian = tested on: SK-OV-3 ovarian
SN12C renal = tested on: SN12C renal
T-47D breast = tested on: T-47D breast
NCI-H23 lung = tested on: NCI-H23 lung
UO-31 renal = tested on: UO-31 renal
SK-MEL-2 melanoma = tested on: SK-MEL-2 melanoma
ACHN renal = tested on: ACHN renal
RXF 393 renal = tested on: RXF 393 renal
EKVX NSCLC = tested on: EKVX NSCLC
OVCAR-3 ovarian = tested on: OVCAR-3 ovarian
786-0 renal = tested on: 786-0 renal
OVCAR-5 ovarian = tested on: OVCAR-5 ovarian
U251 CNS = tested on: U251 CNS
HL-60(TB) leukemia = tested on: HL-60(TB) leukemia
A498 renal = tested on: A498 renal
TK-10 renal = tested on: TK-10 renal
HOP-62 NSCLC = tested on: HOP-62 NSCLC
MDA-MB-435 = tested on: MDA-MB-435
OVCAR-8 ovarian = tested on: OVCAR-8 ovarian
SK-MEL-5 melanoma = tested on: SK-MEL-5 melanoma
A549 NSCLC = tested on: A549 NSCLC
UACC-62 melanoma = tested on: UACC-62 melanoma
SR leukemia = tested on: SR leukemia
M14 melanoma = tested on: M14 melanoma
HCC-2998 colon = tested on: HCC-2998 colon
PC-3 prostate = tested on: PC-3 prostate
COLO 205 colon = tested on: COLO 205 colon
CCRF-CEM leukemia = tested on: CCRF-CEM leukemia
RPMI-8226 leukemia = tested on: RPMI-8226 leukemia
NCI-H460 lung = tested on: NCI-H460 lung
SF-268 CNS = tested on: SF-268 CNS
SF-295 CNS = tested on: SF-295 CNS
SW-620 colon = tested on: SW-620 colon
DU-145 prostate = tested on: DU-145 prostate
SF-539 CNS = tested on: SF-539 CNS
OVCAR-4 ovarian = tested on: OVCAR-4 ovarian
SNB-75 CNS = tested on: SNB-75 CNS
MOLT-4 leukemia = tested on: MOLT-4 leukemia
CAKI-1 renal = tested on: CAKI-1 renal
IGROV1 ovarian = tested on: IGROV1 ovarian
HCT-116 colon = tested on: HCT-116 colon
KM12 colon = tested on: KM12 colon
MCF7 breast = tested on: MCF7 breast
HS 578T breast = tested on: HS 578T breast
SNB-19 CNS = tested on: SNB-19 CNS
K-562 leukemia = tested on: K-562 leukemia
NCI-H226 lung = tested on: NCI-H226 lung
HOP-92 NSCLC = tested on: HOP-92 NSCLC
BT-549 breast = tested on: BT-549 breast
HT29 colon = tested on: HT29 colon
UACC-257 melanoma = tested on: UACC-257 melanoma
HCT-15 colon = tested on: HCT-15 colon
SK-MEL-28 melanoma = tested on: SK-MEL-28 melanoma
LOX IMVI melanoma = tested on: LOX IMVI melanoma

SMILES: O=C(NC1CCCCC1)NS(=O)(=O)c1ccc(-n2nc3c(c2-c2cccs2)Cc2ccccc2-3)cc1
- GI50 (MDA-MB-231 breast): 27.9 µM
- TGI (MDA-MB-231 breast): > 100 µM
- GI50 (NCI-H522 lung): 12.3 µM
- TGI (NCI-H522 lung): 40.3 µM
- GI50 (NCI/ADR-RES ovarian): 20.4 µM
- TGI (NCI/ADR-RES ovarian): 65.4 µM
- GI50 (SK-OV-3 ovarian): 44.5 µM
- TGI (SK-OV-3 ovarian): > 100 µM
- GI50 (SN12C renal): 21.5 µM
- TGI (SN12C renal): 47.7 µM
- GI50 (T-47D breast): 39.7 µM
- TGI (T-47D breast): > 100 µM
- GI50 (NCI-H23 lung): 12.8 µM
- TGI (NCI-H23 lung): 33.8 µM
- GI50 (UO-31 renal): 15.4 µM
- TGI (UO-31 renal): 39.9 µM
- GI50 (SK-MEL-2 melanoma): 23.6 µM
- TGI (SK-MEL-2 melanoma): 64.7 µM
- GI50 (ACHN renal): 17.3 µM
- TGI (ACHN renal): 33.6 µM
- GI50 (RXF 393 renal): 29.2 µM
- TGI (RXF 393 renal): 84.1 µM
- GI50 (EKVX NSCLC): 28.6 µM
- TGI (EKVX NSCLC): 65.4 µM
- GI50 (OVCAR-3 ovarian): 24.5 µM
- TGI (OVCAR-3 ovarian): > 100 µM
- GI50 (786-0 renal): 32.3 µM
- TGI (786-0 renal): > 100 µM
- GI50 (OVCAR-5 ovarian): 26.6 µM
- TGI (OVCAR-5 ovarian): 68.6 µM
- GI50 (U251 CNS): 25.6 µM
- TGI (U251 CNS): > 100 µM
- GI50 (HL-60(TB) leukemia): 25 µM
- TGI (HL-60(TB) leukemia): 48.8 µM
- GI50 (A498 renal): 57.2 µM
- TGI (A498 renal): > 100 µM
- GI50 (TK-10 renal): 17.5 µM
- TGI (TK-10 renal): 34.9 µM
- GI50 (HOP-62 NSCLC): > 100 µM
- TGI (HOP-62 NSCLC): > 100 µM
- GI50 (MDA-MB-435): 32.5 µM
- TGI (MDA-MB-435): > 100 µM
- GI50 (OVCAR-8 ovarian): 25.3 µM
- TGI (OVCAR-8 ovarian): 90.5 µM
- GI50 (SK-MEL-5 melanoma): 18.7 µM
- TGI (SK-MEL-5 melanoma): 43 µM
- GI50 (A549 NSCLC): 28 µM
- TGI (A549 NSCLC): > 100 µM
- GI50 (UACC-62 melanoma): 19.3 µM
- TGI (UACC-62 melanoma): 53 µM
- GI50 (SR leukemia): 1.57 µM
- TGI (SR leukemia): 4.01 µM
- GI50 (M14 melanoma): 64.1 µM
- TGI (M14 melanoma): > 100 µM
- GI50 (HCC-2998 colon): 6.63 µM
- TGI (HCC-2998 colon): 24.1 µM
- GI50 (PC-3 prostate): 14.5 µM
- TGI (PC-3 prostate): 31.7 µM
- GI50 (COLO 205 colon): 23.3 µM
- TGI (COLO 205 colon): 51.1 µM
- GI50 (CCRF-CEM leukemia): 1.15 µM
- TGI (CCRF-CEM leukemia): 3.79 µM
- GI50 (RPMI-8226 leukemia): 10.7 µM
- TGI (RPMI-8226 leukemia): 30.6 µM
- GI50 (NCI-H460 lung): 93 µM
- TGI (NCI-H460 lung): > 100 µM
- GI50 (SF-268 CNS): > 100 µM
- TGI (SF-268 CNS): > 100 µM
- GI50 (SF-295 CNS): 34.9 µM
- TGI (SF-295 CNS): > 100 µM
- GI50 (SW-620 colon): 20.7 µM
- TGI (SW-620 colon): > 100 µM
- GI50 (DU-145 prostate): 31.9 µM
- TGI (DU-145 prostate): > 100 µM
- GI50 (SF-539 CNS): 27.6 µM
- TGI (SF-539 CNS): 61.8 µM
- GI50 (OVCAR-4 ovarian): 27 µM
- TGI (OVCAR-4 ovarian): > 100 µM
- GI50 (SNB-75 CNS): 52.5 µM
- TGI (SNB-75 CNS): > 100 µM
- GI50 (MOLT-4 leukemia): 4.99 µM
- TGI (MOLT-4 leukemia): 37.8 µM
- GI50 (CAKI-1 renal): 16 µM
- TGI (CAKI-1 renal): 44.4 µM
- GI50 (IGROV1 ovarian): 4.12 µM
- TGI (IGROV1 ovarian): 23 µM
- GI50 (HCT-116 colon): 31.7 µM
- TGI (HCT-116 colon): > 100 µM
- GI50 (KM12 colon): 34.9 µM
- TGI (KM12 colon): > 100 µM
- GI50 (MCF7 breast): > 100 µM
- TGI (MCF7 breast): > 100 µM
- GI50 (HS 578T breast): 37.5 µM
- TGI (HS 578T breast): > 100 µM
- GI50 (SNB-19 CNS): 56.8 µM
- TGI (SNB-19 CNS): > 100 µM
- GI50 (K-562 leukemia): 10 µM
- TGI (K-562 leukemia): 35 µM
- GI50 (NCI-H226 lung): 21.3 µM
- TGI (NCI-H226 lung): 64.9 µM
- GI50 (HOP-92 NSCLC): 14.3 µM
- TGI (HOP-92 NSCLC): 29.6 µM
- GI50 (BT-549 breast): 33.7 µM
- TGI (BT-549 breast): 94.1 µM
- GI50 (HT29 colon): 34.3 µM
- TGI (HT29 colon): > 100 µM
- GI50 (UACC-257 melanoma): 24.8 µM
- TGI (UACC-257 melanoma): 72.7 µM
- GI50 (HCT-15 colon): 17.8 µM
- TGI (HCT-15 colon): 41 µM
- GI50 (SK-MEL-28 melanoma): 34.2 µM
- TGI (SK-MEL-28 melanoma): > 100 µM
- GI50 (LOX IMVI melanoma): 5.66 µM
- TGI (LOX IMVI melanoma): 33.5 µM
